Data published in patent US9034897B2, “Indanyl-substituted 4,5,6,7-tetrahydro-1H-pyrazolo[4,3-C]pyridines, their use as medicament, and pharmaceutical preparations comprising them” (SANOFI, priority 2011, dated 2015).

molecular target: Human TASK-1 channels (Homo sapiens (Human), UniProt O14649); assay: Activity on the TASK-1 channel in Xenopus oocytes (two-microelectrode voltage clamp); format: cell-based; settings: 5 μM; percentage inhibition of TASK-1 control current, Xenopus oocytes
Description: Determination of the activity on the TASK-1 channel in Xenopus oocytes:
Human TASK-1 channels were expressed in Xenopus oocytes. For this purpose, oocytes were isolated from Xenopus laevis and defolliculated. Subsequently, TASK-1-encoding RNA synthesized in vitro was injected into oocytes. After two days of TASK-1 protein expression, TASK-1 currents were measured by two-microelectrode voltage clamp. Data were acquired and analyzed using a TEC-10cx amplifier (NPI Electronic, Tamm, Germany) connected to an ITC-16 interface (Instrutech Corp., Long Island, USA) and Pulse software (HEKA Elektronik, Lambrecht, Germany). Oocytes were clamped to −90 mV and TASK-1 mediated currents were measured during 500 ms voltage pulses to 40 mV. Oocytes were continuously superfused with ND96 buffer containing: NaCl 96 mM, KCl2 mM, CaCl2 1.8 mM, MgCl2 1 mM, HEPES 5 mM (pH adjusted to 7.4 with NaOH). All experiments were performed at room temperature.
Test substances were consecutively added to the bath solution at rising concentrations. Compound effects were calculated as the percentage inhibition of
TASK-1 control current before compound application. IC50 values were obtained by fitting the data to the general dose-response equation.

Sequence of Human TASK-1 channels (O14649 whole entry): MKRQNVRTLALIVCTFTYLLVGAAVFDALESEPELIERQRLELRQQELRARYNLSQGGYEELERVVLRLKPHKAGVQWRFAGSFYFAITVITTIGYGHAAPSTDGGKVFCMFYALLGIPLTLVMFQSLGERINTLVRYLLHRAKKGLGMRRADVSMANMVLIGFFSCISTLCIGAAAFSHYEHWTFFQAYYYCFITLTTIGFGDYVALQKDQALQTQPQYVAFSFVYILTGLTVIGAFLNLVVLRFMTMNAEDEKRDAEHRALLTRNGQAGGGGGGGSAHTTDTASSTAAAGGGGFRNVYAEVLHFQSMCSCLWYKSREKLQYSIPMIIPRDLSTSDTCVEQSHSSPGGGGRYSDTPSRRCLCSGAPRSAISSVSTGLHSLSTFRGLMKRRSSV

Row | inhibition at 5 µM [%] | Compound
1 | 61 | CC(=O)N1CCc2c(c(-c3ccc(C(F)(F)F)cc3)nn2[C@@H]2c3cc(F)cc(F)c3C[C@H]2O)C1 [Example 11ae, 1-[1-((1R,2R)-4,6-Difluoro-2-hydroxy-indan-1-yl)-3-(4-trifluoromethyl-phenyl)-1,4,6,7-tetrahydro-pyrazolo[4,3-c]pyridin-5-yl]-ethanone]

same assay, conditions: human TASK-1 expressed in Xenopus oocytes, currents during 500 ms pulses to 40 mV, room temperature

Row | IC50 [nM] | Compound
2 | 2220 | CC(=O)N1CCc2c(c(-c3cccc(F)c3)nn2[C@@H]2c3cc(F)cc(F)c3C[C@H]2O)C1 [Example 11aa, 1-[1-((1R,2R)-4,6-Difluoro-2-hydroxy-indan-1-yl)-3-(3-fluoro-phenyl)-1,4,6,7-tetrahydro-pyrazolo[4,3-c]pyridin-5-yl]-ethanone]
3 | 190 | CC(=O)N1CCc2c(c(-c3cccc(Cl)c3)nn2[C@H]2c3cc(F)cc(F)c3C[C@@H]2O)C1 [Example 11b, 1-[3-(3-Chloro-phenyl)-1-((1S,2S)-4,6-difluoro-2-hydroxy-indan-1-yl)-1,4,6,7-tetrahydro-pyrazolo[4,3-c]pyridin-5-yl]-ethanone]
4 | 226 | CC(=O)N1CCc2c(c(-c3cccc(C#N)c3)nn2[C@@H]2c3cc(F)cc(Br)c3C[C@H]2O)C1 [Example 11d, 3-[5-Acetyl-1-((1R,2R)-4-bromo-6-fluoro-2-hydroxy-indan-1-yl)-4,5,6,7-tetrahydro-1H-pyrazolo[4,3-c]pyridin-3-yl]-benzonitrile]
5 | 350 | CC(=O)N1CCc2c(c(-c3cccc(C#N)c3)nn2[C@@H]2c3cc(Cl)cc(Cl)c3C[C@H]2O)C1 [Example 11g, 3-[5-Acetyl-1-((1R,2R)-4,6-dichloro-2-hydroxy-indan-1-yl)-4,5,6,7-tetrahydro-1H-pyrazolo[4,3-c]pyridin-3-yl]-benzonitrile]
6 | 370 | CC(=O)N1CCc2c(c(-c3cccc(C(F)(F)F)c3)nn2[C@H]2c3cc(F)cc(F)c3C[C@@H]2O)C1 [Example 11h, 1-[1-((1S,2S)-4,6-Difluoro-2-hydroxy-indan-1-yl)-3-(3-trifluoromethyl-phenyl)-1,4,6,7-tetrahydro-pyrazolo[4,3-c]pyridin-5-yl]-ethanone]
7 | 442 | COc1cccc(-c2nn([C@@H]3c4cc(F)cc(F)c4C[C@H]3O)c3c2CN(C(C)=O)CC3)c1 [Example 11k, 1-[1-((1R,2R)-4,6-Difluoro-2-hydroxy-indan-1-yl)-3-(3-methoxy-phenyl)-1,4,6,7-tetrahydro-pyrazolo[4,3-c]pyridin-5-yl]-ethanone]
8 | 675 | CC(=O)N1CCc2c(c(-c3cccc(C#N)c3)nn2[C@H]2c3cc(F)cc(F)c3C[C@@H]2O)C1 [Example 11o, 3-[5-Acetyl-1-((1S,2S)-4,6-difluoro-2-hydroxy-indan-1-yl)-4,5,6,7-tetrahydro-1H-pyrazolo[4,3-c]pyridin-3-yl]-benzonitrile]
9 | 773 | CC(=O)N1CCc2c(c(-c3cccc(C(F)(F)F)c3)nn2[C@@H]2c3cc(F)cc(F)c3C[C@H]2O)C1 [Example 11q, 1-[1-((1R,2R)-4,6-Difluoro-2-hydroxy-indan-1-yl)-3-(3-trifluoromethyl-phenyl)-1,4,6,7-tetrahydro-pyrazolo[4,3-c]pyridin-5-yl]-ethanone]
10 | 881 | CC(=O)N1CCc2c(c(-c3cccc(C#N)c3)nn2[C@@H]2c3cc(F)cc(F)c3C[C@H]2O)C1 [Example 11t, 3-[5-Acetyl-1-((1R,2R)-4,6-difluoro-2-hydroxy-indan-1-yl)-4,5,6,7-tetrahydro-1H-pyrazolo[4,3-c]pyridin-3-yl]-benzonitrile]

Continued, compound first:

Row | Compound | IC50 [nM]
11 | CC(=O)N1CCc2c(c(-c3ccc(F)cc3)nn2[C@@H]2c3c(Cl)cc(Cl)cc3C[C@H]2O)C1 (racemic) [Example 11ac, racemic 1-[1-((1R,2R)-5,7-Dichloro-2-hydroxy-indan-1-yl)-3-(4-fluoro-phenyl)-1,4,6,7-tetrahydro-pyrazolo[4,3-c]pyridin-5-yl]-ethanone] | 3880
12 | CC(=O)N1CCc2c(c(-c3ccc(F)c(C(F)(F)F)c3)nn2[C@H]2c3cc(F)cc(F)c3C[C@]2(C)O)C1 (racemic) [Example 11i, racemic 1-[1-((1S,2S)-4,6-Difluoro-2-hydroxy-2-methyl-indan-1-yl)-3-(4-fluoro-3-trifluoromethyl-phenyl)-1,4,6,7-tetrahydro-pyrazolo[4,3-c]pyridin-5-yl]-ethanone] | 375
13 | CC(=O)N1CCc2c(c(-c3ccc(F)cc3)nn2[C@@H]2c3cc(Cl)c(Cl)cc3C[C@H]2O)C1 (racemic) [Example 11u, racemic 1-[1-((1R,2R)-5,6-Dichloro-2-hydroxy-indan-1-yl)-3-(4-fluoro-phenyl)-1,4,6,7-tetrahydro-pyrazolo[4,3-c]pyridin-5-yl]-ethanone] | 1010
14 | CC(=O)N1CCc2c(c(-c3cccc(C#N)c3)nn2[C@@H]2c3cc(F)cc(F)c3C[C@@]2(C)O)C1 (racemic) [Example 11w, Racemic 3-[5-Acetyl-1-((1R,2R)-4,6-difluoro-2-hydroxy-2-methyl-indan-1-yl)-4,5,6,7-tetrahydro-1H-pyrazolo[4,3-c]pyridin-3-yl]-benzonitrile] | 1260
15 | CC(=O)N1CCc2c(c(-c3cccc(OC(F)(F)F)c3)nn2[C@@H]2c3cc(F)cc(F)c3C[C@H]2O)C1 [Example 11a, 1-[1-((1R,2R)-4,6-Difluoro-2-hydroxy-indan-1-yl)-3-(3-trifluoromethoxy-phenyl)-1,4,6,7-tetrahydro-pyrazolo[4,3-c]pyridin-5-yl]-ethanone] | 171
16 | CC(=O)N1CCc2c(c(-c3ccc(Cl)cc3)nn2[C@@H]2c3cc(F)cc(F)c3C[C@H]2O)C1 [Example 11ab, 1-[3-(4-Chloro-phenyl)-1-((1R,2R)-4,6-difluoro-2-hydroxy-indan-1-yl)-1,4,6,7-tetrahydro-pyrazolo[4,3-c]pyridin-5-yl]-ethanone] | 2970
17 | COc1ccc(-c2nn([C@@H]3c4cc(F)cc(F)c4C[C@H]3O)c3c2CN(C(C)=O)CC3)cc1 [Example 11ad, 1-[1-((1R,2R)-4,6-Difluoro-2-hydroxy-indan-1-yl)-3-(4-methoxy-phenyl)-1,4,6,7-tetrahydro-pyrazolo[4,3-c]pyridin-5-yl]-ethanone] | 6890
18 | COc1ccc(F)c(-c2nn([C@@H]3c4cc(F)cc(F)c4C[C@H]3O)c3c2CN(C(C)=O)CC3)c1 [Example 11c, 1-[1-((1R,2R)-4,6-Difluoro-2-hydroxy-indan-1-yl)-3-(2-fluoro-5-methoxy-phenyl)-1,4,6,7-tetrahydro-pyrazolo[4,3-c]pyridin-5-yl]-ethanone] | 204
19 | CC(=O)N1CCc2c(c(-c3cccc(C(F)(F)F)n3)nn2[C@@H]2c3cc(F)cc(F)c3C[C@H]2O)C1 [Example 11e, 1-[1-((1R,2R)-4,6-Difluoro-2-hydroxy-indan-1-yl)-3-(6-trifluoromethyl-pyridin-2-yl)-1,4,6,7-tetrahydro-pyrazolo[4,3-c]pyridin-5-yl]-ethanone] | 239
20 | CC(=O)N1CCc2c(c(-c3ccc(F)c(C(F)(F)F)c3)nn2[C@@H]2c3cc(F)cc(F)c3C[C@H]2O)C1 [Example 11f, 1-[1-((1R,2R)-4,6-Difluoro-2-hydroxy-indan-1-yl)-3-(4-fluoro-3-trifluoromethyl-phenyl)-1,4,6,7-tetrahydro-pyrazolo[4,3-c]pyridin-5-yl]-ethanone] | 270
21 | CC(=O)N1CCc2c(c(-c3ccc(F)cc3)nn2[C@@H]2c3cc(F)cc(F)c3C[C@H]2O)C1 [Example 11l, 1-[1-((1R,2R)-4,6-Difluoro-2-hydroxy-indan-1-yl)-3-(4-fluoro-phenyl)-1,4,6,7-tetrahydro-pyrazolo[4,3-c]pyridin-5-yl]-ethanone] | 495
22 | CC(=O)N1CCc2c(c(-c3cccc(C(F)(F)F)n3)nn2[C@@H]2c3cc(Cl)cc(Cl)c3C[C@H]2O)C1 [Example 11m, 1-[1-((1R,2R)-4,6-Dichloro-2-hydroxy-indan-1-yl)-3-(6-trifluoromethyl-pyridin-2-yl)-1,4,6,7-tetrahydro-pyrazolo[4,3-c]pyridin-5-yl]-ethanone] | 518
23 | CC(=O)N1CCc2c(c(-c3ccc(F)cc3)nn2[C@@H]2c3cc(Cl)cc(F)c3C[C@H]2O)C1 [Example 11n, 1-[1-((1R,2R)-6-Chloro-4-fluoro-2-hydroxy-indan-1-yl)-3-(4-fluoro-phenyl)-1,4,6,7-tetrahydro-pyrazolo[4,3-c]pyridin-5-yl]-ethanone] | 568
24 | CC(=O)N1CCc2c(c(-c3cccc(C#N)c3)nn2[C@@H]2c3cc(Cl)ccc3C[C@H]2O)C1 [Example 11p, 3-[5-Acetyl-1-((1R,2R)-6-chloro-2-hydroxy-indan-1-yl)-4,5,6,7-tetrahydro-1H-pyrazolo[4,3-c]pyridin-3-yl]-benzonitrile] | 685
25 | CC(=O)N1CCc2c(c(-c3cccc(OC(F)(F)F)c3)nn2[C@H]2c3cc(F)cc(F)c3C[C@@H]2O)C1 [Example 11r, 1-[1-((1S,2S)-4,6-Difluoro-2-hydroxy-indan-1-yl)-3-(3-trifluoromethoxy-phenyl)-1,4,6,7-tetrahydro-pyrazolo[4,3-c]pyridin-5-yl]-ethanone] | 789
26 | CC(=O)N1CCc2c(c(-c3ccc(F)cc3)nn2[C@@H]2c3cc(Cl)ccc3C[C@H]2O)C1 [Example 11s, 1-[1-((1R,2R)-6-Chloro-2-hydroxy-indan-1-yl)-3-(4-fluoro-phenyl)-1,4,6,7-tetrahydro-pyrazolo[4,3-c]pyridin-5-yl]-ethanone] | 804
